Data on one molecule can be found in article PMC6131501, “Urate transporter inhibitor lesinurad is a selective peroxisome proliferator-activated receptor gamma modulator (sPPARγM) in vitro” (Scientific Reports, 2018).

In series [1] the target is pregnane X receptor (PXR) (Homo sapiens, UniProt O75469). Nature of the series: Gal4 hybrid reporter gene assay PXR. The source says: These in vitro test systems are based on a constitutively expressed hybrid receptor composed of the ligand binding domain of the respective human nuclear receptor and the DNA binding domain of the yeast receptor Gal4. A Gal4-inducible firefly luciferase serves as reporter gene and a constitutively expressed renilla luciferase is used for normalization of transfection efficacy and internal toxicity control[18],[19]. […] The Gal4-fusion receptor plasmids pFA-CMV-hPPARα-LBD[50], pFA-CMV-hPPARγ-LBD[50], pFA-CMV-hPPARδ-LBD[50], pFA-CMV-hLXRα-LBD[51], pFA-CMV-hLXRβ-LBD[51], pFA-CMV-hRXRα-LBD[52], pFA-CMV-hRXRβ-LBD[52], pFA-CMV-hRXRγ-LBD[52], pFA-CMV-hRARα-LBD[52], pFA-CMV-hRARβ-LBD[52], pFA-CMV-hRARγ-LBD[52], pFA-CMV-hFXR-LBD[53], pFA-CMV-hVDR-LBD[52], pFA-CMV-hCAR-LBD[52] and pFA-CMV-hPXR-LBD[52] coding for the hinge region and ligand binding domain (LBD) of the canonical isoform of the respective nuclear receptor have been reported previously. pFR-Luc (Stratagene) was used as reporter plasmid and pRL-SV40 (Promega) for normalization of transfection efficiency and cell growth.
Chain of pregnane X receptor (PXR) (O75469 146-433 limits assumed): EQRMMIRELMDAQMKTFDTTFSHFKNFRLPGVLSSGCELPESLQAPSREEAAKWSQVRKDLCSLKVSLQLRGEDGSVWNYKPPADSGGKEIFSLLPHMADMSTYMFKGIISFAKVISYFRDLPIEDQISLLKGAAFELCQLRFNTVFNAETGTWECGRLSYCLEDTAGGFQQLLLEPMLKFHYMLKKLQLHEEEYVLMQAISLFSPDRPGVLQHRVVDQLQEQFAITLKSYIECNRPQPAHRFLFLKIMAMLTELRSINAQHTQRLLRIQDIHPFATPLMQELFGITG
HEK293T cells were grown in DMEM high glucose, supplemented with 10% FCS, sodium pyruvate (1 mM), penicillin (100 U/mL) and streptomycin (100 μg/mL) at 37 °C and 5% CO2. […] Luminescence was measured with an Infinite M200 luminometer (Tecan Deutschland GmbH). […]
In general terms: Reporter assays use an easily measured gene product as a stand-in for the process of interest.

Another series deals with 3T3-L1 cells. Nature of the series: Cytotoxicity in adipocyte differentiation experiment. The series is classed as cell-based, murine. Particulars: up to 50 μM (data not shown). As to the method: For this, 3T3-L1 cells were treated with insulin, dexamethasone and isobutylmethylxanthine (IBMX) to induce their differentiation into mature adipocytes.
For series [2], the system named is urate transporter 1 (URAT1). The arrangement: method as in PMID 27716403. The conditions noted are these: cited from earlier work.
Series [3] concerns the target T1, recombinant PPARγ ligand binding domain (Homo sapiens, UniProt P37231).
T1 sequence (P37231 238-503 limits assumed): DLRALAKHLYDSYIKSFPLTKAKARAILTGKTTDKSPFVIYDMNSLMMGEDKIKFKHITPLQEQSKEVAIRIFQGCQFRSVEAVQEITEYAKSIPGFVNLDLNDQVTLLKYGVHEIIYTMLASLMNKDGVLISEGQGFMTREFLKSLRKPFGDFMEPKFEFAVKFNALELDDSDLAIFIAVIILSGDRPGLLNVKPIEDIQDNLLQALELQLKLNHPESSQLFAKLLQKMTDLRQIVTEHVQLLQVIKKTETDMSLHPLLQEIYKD
In words: Isothermal titration calorimetry (ITC). The method, then:
To confirm direct modulation of PPARγ by lesinurad, we analyzed their interaction by isothermal titration calorimetry (ITC). Due to limited solubility of lesinurad, recombinant PPARγ ligand binding domain (LBD) protein was (reversely) titrated to the drug.
Isothermal titration calorimetry (ITC) was conducted on an Affinity ITC (TA Instruments Affinity ITC). Recombinant PPARγ ligand binding domain protein (138 μM) and lesinurad (40 μM) were each dissolved in a HEPES buffer (25 mM; adjusted to pH 7.5 with KOH; further containing 150 mM KF, 10% glycerol (w/w), 1% DMSO (v/v) and 5 mM DTT). The ITC instrument was adjusted to a temperature of 25 °C and the stirring rate was set at 75 rpm. 190 μL lesinurad solution were filled into the reaction cell and PPARγ ligand binding domain solution was titrated in 41 injections. […] An interval of 200 s was maintained between individual injections. The heats of dilution resulting from titrating PPARγ ligand binding domain protein solution into the buffer solution were recorded in an additional ITC run and subtracted from the raw ITC data obtained for lesinurad.
ITC raw data was analyzed using NanoAnalyze software package (version 3.7.5). An independent binding model was used to fit the reaction enthalpy (ΔH), binding affinity constant (Kd), and stoichiometry (n). Free energy change (ΔG) was calculated from the equation ΔG = −RT ln K and the entropy (ΔS) was calculated from ΔG = ΔH−TΔS.
A general note: Isothermal titration calorimetry measures the heat released or taken up as one component is titrated into another.

For series [4] the following is noted: cited from earlier work; for peak plasma levels: oral dose of 200 mg.
The next series deals with PPARγ. The arrangement: method as in PMID 27716403. The conditions noted are these: up to 100 μM; non-human cell line overexpressing PPARγ; cited from earlier work.
Another series deals with T2, full-length PPARγ (Homo sapiens, UniProt P37231).
T2 construct: host or cells: HEK293T
T2 sequence (P37231 whole entry): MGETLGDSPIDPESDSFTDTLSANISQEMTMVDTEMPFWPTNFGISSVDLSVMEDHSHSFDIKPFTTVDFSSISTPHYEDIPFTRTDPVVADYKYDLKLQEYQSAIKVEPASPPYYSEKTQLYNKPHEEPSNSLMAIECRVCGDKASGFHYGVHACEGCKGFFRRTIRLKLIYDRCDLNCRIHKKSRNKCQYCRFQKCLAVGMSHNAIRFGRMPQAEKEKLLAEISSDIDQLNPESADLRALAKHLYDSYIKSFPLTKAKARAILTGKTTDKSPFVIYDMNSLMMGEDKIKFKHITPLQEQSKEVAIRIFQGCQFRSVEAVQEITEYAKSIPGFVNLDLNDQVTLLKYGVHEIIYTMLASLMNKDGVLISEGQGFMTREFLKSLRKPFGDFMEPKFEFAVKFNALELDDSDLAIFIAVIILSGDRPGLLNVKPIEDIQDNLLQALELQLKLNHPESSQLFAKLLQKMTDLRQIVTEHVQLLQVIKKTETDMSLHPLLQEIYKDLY
In words: Full-length PPARγ reporter gene assay. The series is classed as cell-based. As to the method: HEK293T cells were grown in DMEM high glucose, supplemented with 10% FCS, sodium pyruvate (1 mM), penicillin (100 U/mL) and streptomycin (100 μg/mL) at 37 °C and 5% CO2. The day before transfection, HEK293T cells were seeded in 96-well plates (3·10^4 cells/well). Before transfection, medium was changed to Opti-MEM without supplements. […] 5 h after transfection, medium was changed to Opti-MEM supplemented with penicillin (100 U/mL), streptomycin (100 μg/mL), now additionally containing 0.1% DMSO and the respective test compound or 0.1% DMSO alone as untreated control. Each concentration was tested in duplicates and each experiment was repeated independently at least three times. Following overnight (12-14 h) incubation with the test compounds, cells were assayed for luciferase activity using Dual-Glo™ Luciferase Assay System (Promega) according to the manufacturer’s protocol. Luminescence was measured with an Infinite M200 luminometer (Tecan Deutschland GmbH). […] Fold activation was obtained by dividing the mean RLU of a test compound at a respective concentration by the mean RLU of untreated control.

The structures appear in SMILES notation. Values joined by “and” are separate entries in the source; they are usually repeats but may differ in a detail not shown here. Equal values may be shown once. Read-outs that look alike come from different tables or passages of the source.

On to `O=C(O)CSc1nnc(Br)n1-c1ccc(C2CC2)c2ccccc12` [lesinurad], for which the concentration giving a half-maximal response (EC50) (commonly the concentration needed to bring the measured effect to its halfway point) in series [1] is 19 ± 1 µM; on full-length PPARγ (full-length human PPARγ, HEK293T, mean ± SEM), 21 ± 2 µM. The same molecule registered a PXR transactivation efficacy in series [1] (vs. 1 µM SR12813) of 145 ± 9%. Also, in the series on 3T3-L1 cells, the cytotoxicity result is “no cytotoxicity”. Besides, the half-maximal inhibitory concentration (IC50) (in general, the midpoint of a concentration-inhibition curve) in series [2] is 3.5 µM. Moreover, in series [3] (25 °C, PPARγ LBD titrated to drug, independent binding model), the Kd (as a rule, the concentration at which binding is half-saturated) turned out to be 1.3 µM. Moreover, in series [3] (25 °C, calculated from ΔG = ΔH−TΔS), the ΔS was 27 J/mol·K and 26,99 J/mol·K. For the same molecule, the “n (stoichiometry)” value in series [3] (value printed in the picture of Fig. 4) was 0,987. Besides, in series [4] (free plasma concentration after protein binding), the free concentration is 300 to 600 nM. For the same molecule, the figures for the peak plasma levels in series [4] (ref 40) and in series [4] (ref 41) were 15 µM and 17 µM, respectively. In addition, the “mean peak plasma levels” value in series [4] (single 600 mg oral dose, healthy men) was 22 µg/mL. In addition, the “PPARγ activation reported by Miner et al.” value with PPARγ was “does not activate PPARγ”. Further, the “transactivation efficacy on full-length PPARγ” value at full-length PPARγ (compared to reference agonists) is “higher transactivation efficacy than pioglitazone and rosiglitazone”.
